Target: Carbonic anhydrase 9 (Homo sapiens, UniProt Q16790)
Test: Inhibition of recombinant human carbonic anhydrase 9 incubated for 10 mins prior to testing by stopped flow CO2 hydrase assay

Row | Ki [nM] | Structure (SMILES)
1 | 296 | NS(=O)(=O)c1ccc(CCN2C(=O)CCC2=O)cc1
2 | 2390 | NS(=O)(=O)c1ccc(CCN2C(=O)c3c(Br)c(Br)c(Br)c(Br)c3C2=O)cc1
3 | 1640 | NS(=O)(=O)c1ccc(CCN2C(=O)c3ccc([N+](=O)[O-])cc3C2=O)cc1
4 | 459 | CC(C)(C)c1ccc2c(c1)C(=O)N(CCc1ccc(S(N)(=O)=O)cc1)C2=O
5 | 428 | NS(=O)(=O)c1ccc(CCN2C(=O)c3cc(Cl)c(Cl)cc3C2=O)cc1
6 | 13.7 | NS(=O)(=O)c1ccc(N2C(=O)C3C(C2=O)C2(Cl)C(Cl)=C(Cl)C3(Cl)C2(Cl)Cl)cc1 (centres undefined)
7 | 296 | NS(=O)(=O)c1ccc(CCN2C(=O)[C@H]3CC=CC[C@H]3C2=O)cc1
8 | 16.9 | NS(=O)(=O)c1ccc(CN2C(=O)C3C(C2=O)C2(Cl)C(Cl)=C(Cl)C3(Cl)C2(Cl)Cl)cc1 (centres undefined)
9 | 2670 | NS(=O)(=O)c1ccc(CCN2C(=O)c3cccc([N+](=O)[O-])c3C2=O)cc1
10 | 4190 | NS(=O)(=O)c1ccc(CCN2C(=O)c3nccnc3C2=O)cc1
11 | 390 | Cc1ccc2c(c1)C(=O)N(CCc1ccc(S(N)(=O)=O)cc1)C2=O
12 | 274 | NS(=O)(=O)c1ccc(CCN2C(=O)C=CC2=O)cc1
13 | 296 | NS(=O)(=O)c1ccc(CCN2C(=O)c3ccccc3C2=O)cc1
14 | 114 | NS(=O)(=O)c1ccc(CCN2C(=O)C3C(C2=O)C2(Cl)C(Cl)=C(Cl)C3(Cl)C2(Cl)Cl)cc1 (centres undefined)
